Source: the Deep4Chem optical property database
Blank lines part the entries; values can stand above or below the compound they belong to.

Test: photoluminescence quantum yield (fraction); solvent given as SMILES
[1] = in O=P(c1ccccc1)(c1ccccc1)c1ccccc1Oc1ccccc1P(=O)(c1ccccc1)c1ccccc1

- photoluminescence quantum yield (in CCO): 0.52
- photoluminescence quantum yield (in ClC(Cl)Cl): 0.26
SMILES: CCOc1ccc2c(-c3nc(-c4ccccc4Cl)no3)cc(=O)oc2c1

- photoluminescence quantum yield (in C1CCOC1): 0.013
SMILES: C1=C2c3cc4ccccc4cc3C3=[N+]2[B-]2(Oc4ccccc43)Oc3ccccc3-c3c4cc5ccccc5cc4c1n32 (stereo unspecified)

- photoluminescence quantum yield (in C1CCCCC1): 0.057
- photoluminescence quantum yield (in CC#N): 0.72
- photoluminescence quantum yield (in CO): 0.067
- photoluminescence quantum yield (in ClC(Cl)Cl): 0.12
SMILES: CN(C)c1ccc2nc(-c3ccc(/C=N/c4ccccc4)cc3)sc2c1

- photoluminescence quantum yield (in ClC(Cl)Cl): 0.313
SMILES: COc1ccc(C2=Cc3c4ccccc4cc[n+]3[B-](F)(F)O2)cc1

- photoluminescence quantum yield (in C1CCOC1): 0.611
- photoluminescence quantum yield (in CCCCCC): 0.564
- photoluminescence quantum yield (in CCO): 0.597
- photoluminescence quantum yield (in CS(C)=O): 0.585
SMILES: CCCCOc1ccc2cc(-c3ccc(C)cc3)c(=O)oc2c1

- photoluminescence quantum yield (in CCOC(C)=O): 0.61
SMILES: O=Cc1cc2c(cc3ccc4cccc5ccc2c3c45)[nH]1

- photoluminescence quantum yield (in O): 0.001
SMILES: O=c1ccc2ccccc2o1

- photoluminescence quantum yield (in C1COCCO1): 0.218
SMILES: CC(=O)Nc1ccc(C2=C/C(=C\c3ccc(C#N)cc3)C(=O)N2CC(C)C)cc1

- photoluminescence quantum yield (in ClCCl): 0.284
SMILES: COc1cccc2cc(C)c3c4ccccc4[nH]c3c12

- photoluminescence quantum yield (in ClCCl): 0.3
SMILES: C[Si]1(C)O[Si](C)(C)c2cc3nc4ccccc4c(-c4ccc(F)cc4)c3cc2[Si](C)(C)O1

- photoluminescence quantum yield (in ClCCl): 0.54
SMILES: c1ccc(C2=C(c3ccccc3)c3cccc4c3c(cc3nc5ccccc5nc34)O2)cc1

- photoluminescence quantum yield (in CC#N): 0.13
- photoluminescence quantum yield (in CCCCOCCCC): 0.15
- photoluminescence quantum yield (in CO): 0.13
SMILES: COc1nc(Nc2cc3ccc4cccc5ccc(c2)c3c45)nc(OC)n1

- photoluminescence quantum yield (in C1CCCCC1): 0.85
- photoluminescence quantum yield (in CC#N): 0
- photoluminescence quantum yield (in CO): 0
- photoluminescence quantum yield (in ClC(Cl)Cl): 0.64
SMILES: CN(C)c1ccc2nc(-c3ccc(C=C(C#N)C#N)cc3)sc2c1

- photoluminescence quantum yield (in C1COCCO1): 0.348
SMILES: COC(=O)c1ccc(/C=C2\N=C(c3ccc(OC)c(OC)c3)OC2=O)cc1

- photoluminescence quantum yield (in ClCCl): 0.19
SMILES: CCCc1cc2c(s1)-c1cc3c(cc1NB2c1ccccc1)-c1sc(CCC)cc1B(c1ccccc1)N3

- photoluminescence quantum yield (in ClCCl): 0.07
SMILES: CN(C)c1ccc(/C=C/c2ncnc3ccccc23)cc1

- photoluminescence quantum yield (in C1CCCCC1): 0.72
- photoluminescence quantum yield (in CC#N): 0.62
SMILES: C[Si](C)(c1cccc2ccccc12)c1c2ccccc2cc2ccccc12

- photoluminescence quantum yield (in C1CCOC1): 0.006
- photoluminescence quantum yield (in CC#N): 0.0022
- photoluminescence quantum yield (in CS(C)=O): 0.0013
- photoluminescence quantum yield (in ClC(Cl)Cl): 0.013
SMILES: O=c1oc2ccccc2cc1-c1ccc([N+](=O)[O-])cc1

- photoluminescence quantum yield (in CCO): 0.119
SMILES: CC1(C)C(/C=C/C2=C(Cl)C(=C/C=C3/N(CCCCCC(=O)O)c4ccccc4C3(C)C)/CCC2)=[N+](CCCCCC(=O)O)c2ccccc21

- photoluminescence quantum yield (in ClCCl): 0.03
SMILES: CC(C)(C)c1ccc2c3ccccc3c3cncnc3c2c1

- photoluminescence quantum yield (in CO): 0.93
SMILES: Oc1cc2ccc3cc(O)cc4ccc(c1)c2c34

The next lines start with the compound.

SMILES: CN(C)c1ccc(C#Cc2ccc(C#N)cc2)cc1
- photoluminescence quantum yield (in C1CCCCC1): 0.455
- photoluminescence quantum yield (in C1CCOC1): 0.4
- photoluminescence quantum yield (in C1COCCO1): 0.066
- photoluminescence quantum yield (in CC1CCCO1): 0.099
- photoluminescence quantum yield (in CC#N): 0.024
- photoluminescence quantum yield (in CC(C)=O): 0.49
- photoluminescence quantum yield (in CC(C)CC(C)(C)C): 0.032
- photoluminescence quantum yield (in CC(C)O): 0.006
- photoluminescence quantum yield (in CCCCCCCCCCCCCCCC): 0.3
- photoluminescence quantum yield (in CCCCCCCCCCCCCCCCCl): 0.33
- photoluminescence quantum yield (in CCOC(C)=O): 0.33
- photoluminescence quantum yield (in CCOCC): 0.29
- photoluminescence quantum yield (in CN(C)C=O): 0.17
- photoluminescence quantum yield (in CS(C)=O): 0.029
- photoluminescence quantum yield (in Cc1ccccc1): 0.38

SMILES: CCCCCCCCN1c2ccccc2Sc2cc(/C=C/c3ccc(N(c4ccc(/C=C/c5ccc6c(c5)Sc5ccccc5N6CCCCCCCC)cc4)c4ccc(/C=C/c5ccc(/C=C/c6ccc(N(c7ccc(/C=C/c8ccc(N(c9ccccc9)c9ccccc9)cc8)cc7)c7ccc(/C=C/c8ccc(N(c9ccccc9)c9ccccc9)cc8)cc7)cc6)c6nsnc56)cc4)cc3)ccc21
- photoluminescence quantum yield (in C1CCOC1): 0.031
- photoluminescence quantum yield (in CCOC(C)=O): 0.062
- photoluminescence quantum yield (in CN(C)C=O): 0.001
- photoluminescence quantum yield (in Cc1ccccc1): 0.349
- photoluminescence quantum yield (in ClC(Cl)Cl): 0.06
- photoluminescence quantum yield (in ClCCl): 0.003

SMILES: O=C1OC(c2ccccc2)=N/C1=C\c1ccc(N(c2ccccc2)c2ccccc2)cc1
- photoluminescence quantum yield (in C1CCCCC1): 0.031
- photoluminescence quantum yield (in C1CCOC1): 0.108
- photoluminescence quantum yield (in C1COCCO1): 0.045
- photoluminescence quantum yield (in CC1CCCCC1): 0.043
- photoluminescence quantum yield (in CC#N): 0.014
- photoluminescence quantum yield (in CC(C)=O): 0.055
- photoluminescence quantum yield (in CC(C)CC(C)(C)C): 0.028
- photoluminescence quantum yield (in CCCCC): 0.029
- photoluminescence quantum yield (in CCCCCC): 0.031
- photoluminescence quantum yield (in CCCCCCC): 0.034
- photoluminescence quantum yield (in CCCCOCCCC): 0.036
- photoluminescence quantum yield (in CCOC(C)=O): 0.095
- photoluminescence quantum yield (in CCOCC): 0.072
- photoluminescence quantum yield (in CN(C)C=O): 0.014
- photoluminescence quantum yield (in CS(C)=O): 0.012
- photoluminescence quantum yield (in Cc1ccccc1): 0.034
- photoluminescence quantum yield (in ClC(Cl)Cl): 0.028

SMILES: CC(C)(C)c1ccc(N(c2ccc(S(=O)(=O)c3ccc(S(=O)(=O)c4ccc(N(c5ccc(C(C)(C)C)cc5)c5ccccc5C(C)(C)C)cc4)cc3)cc2)c2ccccc2C(C)(C)C)cc1
- photoluminescence quantum yield (in Cc1ccccc1): 0.8

SMILES: CC[Si](CC)(CC)Oc1cccc(O[Si](CC)(CC)CC)c1-c1c2ccccc2c(-c2c(O[Si](CC)(CC)CC)cccc2O[Si](CC)(CC)CC)c2ccccc12
- photoluminescence quantum yield (in C1CCCCC1): 0.96

SMILES: Cc1cc(C)c(-c2nnc(-c3ccc(-n4c5ccccc5c5ccccc54)cc3)o2)c(C)c1
- photoluminescence quantum yield (in Cc1ccccc1): 0.59

SMILES: Cc1cc(C)c(B(c2ccc(N3c4ccccc4C(C)(C)c4ccccc43)cc2)c2c(C)cc(C)cc2C)c(C)c1
- photoluminescence quantum yield (in Cc1ccccc1): 0.89

SMILES: CCCCCCCC[n+]1ccc(-c2cc[n+](CCCCCCCC)cc2)cc1
- photoluminescence quantum yield (in CC#N): 0.009

SMILES: CCCCCCCC(=O)Oc1ccc2c3cccc4c(OC(=O)CCCCCCC)ccc(c5cccc1c52)c43
- photoluminescence quantum yield (in C1CCOC1): 0.97
- photoluminescence quantum yield (in Cc1ccccc1): 0.97
- photoluminescence quantum yield (in ClC(Cl)(Cl)Cl): 0.06
- photoluminescence quantum yield (in ClC(Cl)Cl): 0.91
- photoluminescence quantum yield (in ClCCl): 0.8
- photoluminescence quantum yield (in c1ccncc1): 0.93

SMILES: COc1ncccc1B(O)O
- photoluminescence quantum yield (in C1COCCO1): 0.423
- photoluminescence quantum yield (in CC(C)O): 0.549
- photoluminescence quantum yield (in CCCCCC): 0.502
- photoluminescence quantum yield (in CCCCCCC): 0.689
- photoluminescence quantum yield (in CCCCCCCC): 0.701
- photoluminescence quantum yield (in CCCCCCCCO): 0.317
- photoluminescence quantum yield (in CCO): 0.783
- photoluminescence quantum yield (in CO): 0.518

SMILES: Cc1ccccc1C
- photoluminescence quantum yield (in C1CCCCC1): 0.26

SMILES: CCCCCCc1cc(-c2ccc3c(c2)C2CCCC2N3c2ccc3c(c2)C(C)(C)c2ccccc2-3)sc1/C=C1\C(=O)c2ccc(C(=O)O)cc2C1=O (stereo unspecified)
- photoluminescence quantum yield (in ClC(Cl)Cl): 0.24

SMILES: c1ccc2c(-n3c(-c4ccc(-c5ccc(-c6nc7c8ccccc8c8ccccc8c7n6-c6cccc7ccccc67)c6ccccc56)c5ccccc45)nc4c5ccccc5c5ccccc5c43)cccc2c1
- photoluminescence quantum yield (in ClCCl): 0.75

SMILES: CCCCCCc1cc(B(c2c(C)cc(C)cc2C)c2c(C)cc(C)cc2C)c(-c2sc(CCCCCC)cc2P(=O)(c2ccccc2)c2ccccc2)s1
- photoluminescence quantum yield (in CO): 0.17

SMILES: COc1ccc(-c2nc(C(C)=O)c(C)o2)cc1
- photoluminescence quantum yield (in CC#N): 0.056
- photoluminescence quantum yield (in CCO): 0.053
- photoluminescence quantum yield (in CCOC(C)=O): 0.134
- photoluminescence quantum yield (in CCOCC): 0.019
- photoluminescence quantum yield (in ClCCl): 0.051

SMILES: CC1(C)c2ccccc2N(c2ccc(-c3nc4c(C#N)ccc(C#N)c4nc3-c3ccc(N4c5ccccc5C(C)(C)c5ccccc54)cc3)cc2)c2ccccc21
- photoluminescence quantum yield (in Cc1ccccc1): 0.72

SMILES: CC(C)(C)c1ccc2c(c1)c1cc(C(C)(C)C)ccc1n2-c1ccc(-c2nc(-c3ccc(-n4c5ccc(C(C)(C)C)cc5c5cc(C(C)(C)C)ccc54)cc3)nc(-c3ccc(P(=O)(c4ccccc4)c4ccccc4)cc3)n2)cc1
- photoluminescence quantum yield [1]: 0.74

SMILES: COC(=O)C(NC(=O)OC(C)(C)C)c1ccc2oc(-c3cc(C(F)(F)F)cc(C(F)(F)F)c3)nc2c1 (stereo unspecified)
- photoluminescence quantum yield (in CC1CCCCC1): 0.54
- photoluminescence quantum yield (in CC#N): 0.46
- photoluminescence quantum yield (in CO): 0.44

SMILES: CCCCCCCCN(CCCCCCCC)c1ccc(/C=C/c2ccc(C#Cc3ccc(-c4ccc(C#Cc5ccc(/C=C/c6ccc(N(CCCCCCCC)CCCCCCCC)cc6)cc5)cc4)cc3)cc2)cc1
- photoluminescence quantum yield (in Cc1ccccc1): 0.5

SMILES: CCN1c2ccc(/C=N/Nc3ccccn3)cc2Sc2cc(-c3ccc(C#N)cc3)ccc21
- photoluminescence quantum yield (in C1CCOC1): 0.23
- photoluminescence quantum yield (in CS(C)=O): 0.23
- photoluminescence quantum yield (in Cc1ccccc1): 0.33
- photoluminescence quantum yield (in ClCCl): 0.36

SMILES: COc1ccc(C2=C(c3ccccc3)C(c3ccccc3)=[N+]3C2=Nc2c(-c4ccc(OC)cc4)c(-c4ccccc4)c(-c4ccccc4)n2[B-]3(F)F)cc1
- photoluminescence quantum yield (in Cc1ccccc1): 0.04

SMILES: COc1ccc(-c2n[n+]3c(s2)N=C(c2ccccc2)O[B-]3(F)F)cc1
- photoluminescence quantum yield (in Cc1ccccc1): 0.16

SMILES: CC(C)c1cc(C(C)C)c(B2c3ccccc3Oc3cc(-n4c5ccccc5c5ccc6c(c7ccccc7n6-c6ccccc6)c54)ccc32)c(C(C)C)c1
- photoluminescence quantum yield (in CC(C)c1cc(C(C)C)c(-c2ccc(-n3c4ccccc4n4c5ccccc5nc34)nc2)c(C(C)C)c1): 0.506
- photoluminescence quantum yield [1]: 0.631

SMILES: CC(C)(C)c1ccc2c(c1)Cc1cc(C(C)(C)C)ccc1-2
- photoluminescence quantum yield (in C1CCCCC1): 0.7

SMILES: COC(=O)c1c(C(=O)OC)c2ccc(C)nn2c1C
- photoluminescence quantum yield (in CCCCCC): 0.348

SMILES: N#C/C(=C/Nc1ccc(C#N)cc1)c1nc(-c2ccccc2)cs1
- photoluminescence quantum yield (in CC#N): 0
- photoluminescence quantum yield (in CCO): 0.0001
- photoluminescence quantum yield (in CN(C)C=O): 0.0001
- photoluminescence quantum yield (in Cc1ccccc1): 0.0001
- photoluminescence quantum yield (in ClCCl): 0.0001

SMILES: COC(=O)/C=C/c1ccc2ccc3cccc4ccc1c2c34
- photoluminescence quantum yield (in C1CCOC1): 0.73
- photoluminescence quantum yield (in C1COCCO1): 0.55
- photoluminescence quantum yield (in CC#N): 0.46
- photoluminescence quantum yield (in CC(C)=O): 0.51
- photoluminescence quantum yield (in CCCCCC): 0.46
- photoluminescence quantum yield (in CCOC(C)=O): 0.57
- photoluminescence quantum yield (in CO): 0.26
- photoluminescence quantum yield (in Cc1ccccc1): 0.47

SMILES: O=C1c2ccc(N(c3ccccc3)c3ccccc3)cc2C(=O)c2ccc(N(c3ccccc3)c3ccccc3)cc21
- photoluminescence quantum yield (in Cc1ccccc1): 0.2
- photoluminescence quantum yield (in c1ccc2c(c1)c1ccccc1n2-c1ccc(-c2ccc(-n3c4ccccc4c4ccccc43)cc2)cc1): 0.5

SMILES: CCOC(=O)c1nn(-c2ccc(OC)cc2)nc1N1CCCC1
- photoluminescence quantum yield (in CC#N): 0.731

SMILES: NCCCCCCCCCCCCN1C(=O)c2ccc3c4ccc5c6c(ccc(c7ccc(c2c37)C1=O)c64)C(=O)N(CCCCCCCCCCCCN)C5=O
- photoluminescence quantum yield (in CN(C)C=O): 0.83
